For data set [1], the system named is Pseudomonas aeruginosa. To be noted: in vivo.
Experimental: For meropenem analysis, we used the plasma concentration at 1 h after the end of a 3-h infusion of the drug corresponding to a dosing interval of 50%.
For data set [2] the following is noted: in vivo; cited from earlier work.
How the values of data set [3] were obtained: This study was a prospective, multicentric, PK/PD study. It included pediatric patients who were admitted to the pediatric ICU between July 2017 and November 2019 at two hospitals in Santiago, Chile. The Ethical Committee for Research of Clinica Las Condes approved this prospective study (approval number: M012017) and required signed written informed consent from each patient’s parents. […] Neonates were excluded.
Meropenem was administered as a 3-h infusion with intravenous doses of 20–40 mg/kg every 8 or 12 h. […] Both antibiotics’ doses were adjusted according to renal function. Blood samples were collected at 1 and 3 h post-infusion and before the following dose for meropenem.
Unbound meropenem plasma concentrations were determined by high-performance liquid chromatography (Agilent Infinity 1,260, Santa Clara, United States) with a UV detector. The methodology was adapted to the equipment conditions from available publications ([Elkhaïli et al., 1996]; [McWhinney et al., 2010]; [Wolff et al., 2013]) and validated according to the recommendations of the Bioanalytical Method Validation Guidance for Industry ([U.S. Department of Health and Human Services, 2018]). The stationary phase was a Zorbax Eclipse Plus C18 column (3.5 μm, 75 × 4.6 mm) and the mobile phase was acetonitrile with 10 mM ammonium acetate (pH 4.0) (5:95, organic solvent:buffer initiallity) in gradient to minute 7(50:50, organic solvent:buffer). Meropenem was detected by UV detection at 298 nm. The flow rate was 1.0 ml/min. […] Standard curves were prepared in blank human plasma. […] Meropenem in plasma samples was quantified using the peak area of standard samples for calibrations.
For both analytes, the measurement was performed on the free-drug, non-protein bound fraction.
Pharmacokinetic modelling was performed using PMetrics 1.5.0 with RStudio 0.99.902 and digital compiler Gfortran 5.2. […] Primary pharmacokinetic parameters of CL and Vd for the central compartment were calculated. Elimination from the central compartment and inter-compartmental distribution were modelled as first-order processes. Inter-compartmental distribution was described as rate of transfer from the unbound compartment to a peripheral compartment (Kcp) and rate of transfer from a peripheral compartment to the unbound compartment (Kpc). […] Volume of the peripheral compartment (Vp) was calculated as (Vc*Kcp)/Kpc, where Vc is the volume of the central compartment. Total Vd was calculated as the sum of Vc and Vp.
We selected the final model on the basis of minimizing the Akaike Information Criterion (AIC) and likelihood of the nested models (-2*Log-likelihood, -2*LL), with both criteria penalized by the number of parameters in the model. A reduction of -2*LL as calculated within Pmetrics was used for statistical comparison of nested models. We also factored bias (mean weighted predicted-observed error) and imprecision (bias-adjusted, mean weighted squared predicted-observed error) and correlation co-efficient into the selection of the final model. Shrinkage was calculated as the percentage of total variance in each model probability distribution.
Covariate model building was performed using sequential assessment of biologically plausible clinical characteristics. Continuous data was used for all covariates tested, with the exception of gender, which was male/female. The association of the covariates versus parameters was assessed by regression with linear or non-linear associations able to be used in the covariate model testing with inclusion based upon biological plausibility and a statistically significant improvement in log-likelihood. Inclusion age (months), weight (kg), height (cm), gender, C-reactive protein (mg/L), albumin (g/L), total bilirubin (mg/dl), serum creatinine (mg/dl), 24-h hydric balance (ml).

Details of data set [4]: method as in Rybak, 2006. The following applies: ref Rybak, 2006; cited from earlier work.
[5] abbreviates: pediatric ECMO patients, 11 PK profiles, population median.

SMILES strings stand for the structures.

As for `C[C@@H](O)[C@H]1C(=O)N2C(C(=O)O)=C(S[C@@H]3CN[C@H](C(=O)N(C)C)C3)[C@H](C)[C@H]12` [meropenem], the “PK profiles achieving PK/PD target fT 50% > 4 x MIC” value in data set [1] is on record as 91%. Besides, in data set [2], the “meropenem clearance in most reported studies, range” value is 2.17 to 17.55 mL/min/kg. In data set [3] (human, in vivo), the “CL (clearance of meropenem), median” value was 2.4 mL/min/kg; the “Kcp (rate of transfer central to peripheral compartment), meropenem, mean” value is 1.37 h⁻¹; the “Kcp, meropenem, median” value was 1.30 h⁻¹; the “Kpc (rate of transfer peripheral to central compartment), meropenem, mean” value is 1.25 h⁻¹. Moreover, in data set [3] (human, in vivo), the “Kpc, meropenem, median” value was determined as 1.34 h⁻¹; the “Vc (central volume of distribution of meropenem), median” value came out at 0.289 L/kg; the “Vd (vc + vp), meropenem, mean” value was found to be 0.606 L/kg; the “Vp (Vc*kcp/kpc), meropenem, mean” value came out at 0.317 L/kg.
Take `CN[C@H](CC(C)C)C(=O)N[C@H]1C(=O)N[C@@H](CC(N)=O)C(=O)N[C@H]2C(=O)N[C@H]3C(=O)N[C@H](C(=O)N[C@H](C(=O)O)c4cc(O)cc(O)c4-c4cc3ccc4O)[C@H](O)c3ccc(c(Cl)c3)Oc3cc2cc(c3O[C@@H]2O[C@H](CO)[C@@H](O)[C@H](O)[C@H]2O[C@H]2C[C@](C)(N)[C@H](O)[C@H](C)O2)Oc2ccc(cc2Cl)[C@H]1O` [vancomycin]: the elimination route entry in data set [4] is “nearly completely renally eliminated”. The “Kcp (rate of transfer central to peripheral compartment), vancomycin, mean” value in data set [3] (pediatric ECMO patients, 11 PK profiles, population mean) is 0.483 h⁻¹. In data set [3] (setting [5]), the “Kcp, vancomycin, median” value was 0.481 h⁻¹ and the “Kpc, vancomycin, median” value was 0.286 h⁻¹.

These data come from publication PMC8411703 (Frontiers in Pharmacology, 2021).
